Biological target: T1, TANK-2 enzyme (Homo sapiens, UniProt Q9H2K2)
T1 construct: made in house
T1 sequence (Q9H2K2 1-1166): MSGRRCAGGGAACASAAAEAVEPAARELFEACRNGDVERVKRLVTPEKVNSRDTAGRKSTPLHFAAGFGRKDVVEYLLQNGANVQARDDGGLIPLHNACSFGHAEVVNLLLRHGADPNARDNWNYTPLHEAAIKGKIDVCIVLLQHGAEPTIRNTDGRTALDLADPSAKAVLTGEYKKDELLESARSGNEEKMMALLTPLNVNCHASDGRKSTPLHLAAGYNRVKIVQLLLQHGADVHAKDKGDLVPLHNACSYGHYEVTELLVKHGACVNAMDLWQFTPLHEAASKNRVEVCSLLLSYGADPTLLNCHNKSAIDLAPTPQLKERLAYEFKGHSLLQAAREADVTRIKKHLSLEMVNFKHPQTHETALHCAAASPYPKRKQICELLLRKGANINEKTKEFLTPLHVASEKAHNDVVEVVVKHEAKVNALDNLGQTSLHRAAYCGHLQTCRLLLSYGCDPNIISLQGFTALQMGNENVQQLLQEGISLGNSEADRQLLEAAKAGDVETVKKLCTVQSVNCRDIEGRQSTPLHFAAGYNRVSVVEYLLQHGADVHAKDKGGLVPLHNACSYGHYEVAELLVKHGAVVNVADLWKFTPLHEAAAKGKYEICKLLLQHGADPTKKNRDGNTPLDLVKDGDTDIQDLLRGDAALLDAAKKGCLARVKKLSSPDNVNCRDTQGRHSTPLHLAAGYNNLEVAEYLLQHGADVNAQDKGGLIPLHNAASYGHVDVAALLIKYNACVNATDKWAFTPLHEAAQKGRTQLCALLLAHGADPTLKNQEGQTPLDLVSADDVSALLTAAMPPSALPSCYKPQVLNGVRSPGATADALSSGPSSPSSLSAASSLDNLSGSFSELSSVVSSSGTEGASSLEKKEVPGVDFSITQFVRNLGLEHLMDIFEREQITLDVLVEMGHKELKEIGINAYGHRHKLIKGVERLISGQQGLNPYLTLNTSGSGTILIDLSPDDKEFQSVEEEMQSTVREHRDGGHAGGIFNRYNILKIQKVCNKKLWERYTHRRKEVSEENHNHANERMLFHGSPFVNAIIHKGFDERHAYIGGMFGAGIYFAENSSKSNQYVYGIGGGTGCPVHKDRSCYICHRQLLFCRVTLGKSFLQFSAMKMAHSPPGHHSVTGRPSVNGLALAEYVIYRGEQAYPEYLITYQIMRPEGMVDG
Test: In vitro scintillation proximity assay (SPA) for TANK-2 inhibitory activity
Type: biochemical
Settings: not given
Procedure: In Vitro Scintillation Proximity Assay (SPA) for TANK-2 Inhibitory Activity
Compounds of the present invention were tested in an in vitro assay based on SPA technology with Ni Flash plates (96 or 384 well).
In principle, the assay relies upon SPA technology for the detection of auto-poly(ADP-ribosyl)ation of TANK-2 protein using [^3H]-nicotinamide adenine dinucleotide ([^3H]-NAD^+) as ADP-ribosyl donor.
A stock solution of [^3H]-NAD^+/NAD was made by adding 64.6 μl of [^3H]-NAD^+ (0.1 mCi/ml, supplier: Perkin Elmer) and 46.7 μl NAD-stock (10.7 mM, stored at −20° C., supplier Roche) to 1888.7 μl assay buffer (60 mM Tris/HCl, pH 7.4; 0.9 mM DTT; 6 mM MgCl2). The TANK-2 enzyme was produced as described in EP1238063. 60 μl of assay buffer, together with 1 μl of compound in DMSO, 20 μl of [^3H]-NAD^+/NAD and 20 μl of TANK-2 enzyme (final concentration 6 μg/ml) was added per well into a 96-well Ni-coated flash plate (Perkin Elmer). After incubation of the mixture for 120 min. at room temperature, the reaction was terminated by adding 60 μl of stopsolution (42.6 mg NAD in 6 ml H2O). The plates were covered with a plate sealer and placed in a TopCountNXT™ (Packard) for scintillation counting. Values were expressed as counts per minute (cpm). For each experiment, controls (containing TANK-2 enzyme and DMSO without compound), a blank incubation (containing DMSO but no TANK-2 enzyme or compound) and samples (containing TANK-2 enzyme and compound dissolved in DMSO) were run in parallel. All compounds tested were dissolved and eventually further diluted in DMSO. In first instance, compounds were tested at a concentration of 10^−5M. […] In each test, the blank value was subtracted from both the control and the sample values. The control sample represented maximal TANK-2 enzyme activity. For each sample, the amount of cpm was expressed as a percentage of the mean cpm value of the controls. When appropriate, IC50-values (concentration of the drug, needed to reduce the TANK-2 enzyme activity to 50% of the control) were computed using linear interpolation between the experimental points just above and below the 50% level. Herein the effects of test compounds are expressed as pIC50 (the negative log value of the IC50-value). As reference compounds, 3-aminobenzamide and 4-amino-1,8-naphthalimide were included to validate the SPA assay. Herein the assay was described using 96-well plates. In the assay using 384-well plates the same final concentrations were used and volumes were adapted.

SMILES | IC50 [µM]
O=c1[nH]c(=O)n(CCCN2CCC(c3c[nH]c4ccccc34)CC2)c2ccccc12 [Compound 3] | > 10

Same assay, conditions: auto-poly(ADP-ribosyl)ation, [3H]-NAD+; 96-well results if available, otherwise 384-well; read-out: in vitro SPA assay TANK-2 pIC50 (converted)

SMILES | IC50 [µM]
O=c1[nH]c(=O)n(C2CCN(CCCn3c(=O)[nH]c4ccccc43)CC2)c2ccccc12 [Compound 5] | 7.57
O=c1[nH]c(=O)n(C2CCN(CC(O)C3CCc4ccccc4O3)CC2)c2ccccc12 (stereo in doubt) [Compound 9, 1-[1-[(2S)-2-[(2R)-3,4-dihydro-2H-1-benzopyran-2-yl]-2-hydroxyethyl]-4-piperidinyl]-2,4(1H,3H)-quinazolinedione] | > 10
O=c1[nH]c(=O)n(C2CCNCC2)c2ccccc12 [Compound 1] | > 10
O=C(c1ccc(F)cc1)C1CCN(CCn2c(=O)[nH]c(=O)c3ccccc32)CC1 [Compound 10, 1-[2-[4-(4-fluorobenzoyl)-1-piperidinyl]ethyl]-2,4-(1H,3H)-quinazolinedione] | 7.19
O=C(c1ccc(F)cc1)C1CCN(CCCn2c(=O)[nH]c(=O)c3ccccc32)CC1 [Compound 11, 1-[3-[4-(4-fluorobenzoyl)-1-piperidinyl]propyl]-2,4-(1H,3H)-quinazolinedione] | > 10
O=c1[nH]c(=O)n(CCCN2CCC(O)(c3ccc(Cl)cc3)CC2)c2ccccc12 [Compound 7] | > 10
O=C(CCCN1CCC(n2c(=O)[nH]c(=O)c3ccccc32)CC1)c1ccc(F)cc1 [Compound 2] | > 10
O=c1[nH]c(=O)n(CCN2CCC(O)(c3ccc(Cl)cc3)CC2)c2ccccc12 [Compound 6] | 1.38
